Data as given in patent publication US9023762B2, “Plant growth regulator compositions, methods of preparation and use thereof” (Valent BioSciences Corporation, priority 2011, dated 2015).

Legend:
[1] = tested on: Tomato (variety: Rutgers) plants; assay: Tomato transpiration inhibition study (foliar application); format: in vivo; conditions: for Transpiration rate (% of control) Average of 3 days after treatment: foliarly applied to tomato leaves; for S-(+)-Abscisic acid doses to achieve 50% inhibition of transpiration / S-(+)-Abscisic acid dose to achieve 50% inhibition of transpiration: foliar, first 3 days after treatment; for S-(+)-Abscisic acid dose to achieve 50% inhibition of transpiration: log-linear regression; for Relative potency: transpiration inhibition
Excerpt: Efficacy of the preferred composition of the present invention was studied with tomato plants to compare its transpiration inhibition effect against 10% potassium salt of S-(+)-Abscisic acid solution (ABA salt) and technical grade active ingredient of the free acid (S-(+)-Abscisic acid). Tomato (variety: Rutgers) seeds were sown in an 18-cell flat filled with Promix PGX (available from Premier Horticulture Inc. Quakertown, Pa.) for four weeks for germination and initial growth. Plants were then transplanted into pots (18 cm in diameter and 18 cm in height) filled with Promix BX (available from Premier Horticulture Inc. Quakertown, Pa.) and grown for another 5 days before treatment. During growing periods, plants received daily irrigation and weekly fertilizer (1 g/L all purpose fertilizer 20-20-20, The Scotts Company, Marysville, Ohio). S-(+)-Abscisic acid solutions of different, formulations were foliar applied to tomato plant leaves at the rate of 24 mL/6 plants. Plants were then placed in a transparent chamber with humidity controlled at relative humidity 40 to 60%. Leaf transpiration rate was measured 1, 2, 3 or 4 and 7 days after treatment using an AP4 Leaf Porometer (Dynamax, Inc., Houston, Tex.). The transpiration rate of each treatment was calculated as the percentage of that of control at each day to reduce day-to-day variation caused by changes of environmental condition such as light intensity and temperature. The log-linear regression between S-(+)-Abscisic acid doses and the average transpiration rates of first 3 days after treatment was used for calculation of S-(+)-Abscisic acid dose to achieve 50% inhibition of transpiration.

[2] = tested on: Pansy plants; assay: Pansy shelf life extension study (sprench application); format: in vivo; conditions: for Days of extended shelf life / S-(+)-Abscisic acid dose (mg) to extend 1 day of shelf life / S-(+)-Abscisic acid dose (mg) to extend 2 days of shelf life: drench and foliar applied; for S-(+)-Abscisic acid dose to extend 1 day shelf life: drench/foliar applied; for S-(+)-Abscisic acid dose (mg) to extend 1 day of shelf life / S-(+)-Abscisic acid dose (mg) to extend 2 days of shelf life: log-linear regression
Excerpt: Efficacy of the preferred composition of the present invention was also studied with Pansy plants to compare its shelf life extension effect against 10% potassium salt of S-(+)-Abscisic acid solution (ABA salt) and technical grade active ingredient of the free acid (S-(+)-Abscisic acid).
Pansy plants were obtained from local retailers as mature plants. Pansy plants were then transplanted into an 18-cell flat filled with Promix BX (available from Premier Horticulture Inc. Quakertown, Pa.) and grown for 3 days prior to treatment.
Uniform plants were selected for the study. Prior to S-(+)-Abscisic acid treatment, plants were saturated with water and then drained for about two hours. A total of 20 mL S-(+)-Abscisic acid solution, which is equivalent to about 10% of the cell volume, was applied to each plant by soil drench/foliar spray application. In the ornamental industry, this method of chemical application is commonly known as a sprench application. In this study, 17 mL solution was drench applied to root zone and 3 mL solution was foliar applied to canopy. Plants were not watered following the S-(+)-Abscisic acid treatment.
After the S-(+)-Abscisic acid treatment, plants were arranged in a randomized complete block experimental design. The plants were rated daily for the extent of wilting on a scale from 1 for no wilting to 4 for complete wilting. A rating of 2.5 was the point at which a plant was determined to be unmarketable and the previous day was recorded as the shelf life of that plant in days. The log-linear regression between S-(+)-Abscisic acid doses and the extension of shelf life over control plants was used for calculation of S-(+)-Abscisic acid dose to extend 1 day or 2 days of shelf life.

[3] = tested on: canola seed; assay: Canola emergence after seed treatment (S-ABA as ammonium salt solution, 6-benzyladenine technical powder); format: in vivo; conditions: for Final emergence (%) / Qrange / T50: 6-BA 0 g/cwt
Description: In this example, the effect of the cytokinin 6-benzyladenine on S-(+)-Abscisic acid induced germination delay on Canola was studied. The experiment was set up as an S-(+)-Abscisic acid-dose×BA-dose factorial experiment, with four doses of S-(+)-Abscisic acid (0, 25, 50, and 100 g/cwt) and four doses of 6-benzyladenine (0, 1, 5 and 25 g/cwt) for a total of 16 treatment combinations. The treatments were made up in 1 ml samples of experimental aqueous seed treatment slurry. S-(+)-Abscisic acid was added in the form of a water solution of the ammonium salt. 6-Benzyladenine was added as technical powder. Ten μl Tween® 20 were added to each sample to help wet and suspend the 6-benzyladenine powder. All of the seed treatment slurry samples contained CP-Clear film-forming agent and Color Coat Red (available from Becker Underwood), each at 1 oz/cwt, and 0.167 oz/cwt Maxim XL fungicide (available from Syngenta). The slurry application volume was 40 oz/cwt (cwt means per 100 lbs or 45.4 kgs of seed). Ten gram samples of canola seed were treated with the experimental slurries using a Hege 11 seed treater with a six-inch bowl.
The seed was planted in plastic boxes containing 1 kg of typical agricultural slit loam. One hundred seeds were planted 2 cm deep in each plastic box, and the soil in the box was adjusted to 21% soil moisture (wet-weight basis). Two replications of the experiment were incubated under constant light in a 10° C. chamber. The soil temperature averaged 12.6° C. The boxes were watered up to the correct weight every 1-2 days, and checked for emergence. Counts of seedlings were continued until it became clear that emergence had ceased (28 days). The final count of emerged seedlings was expressed as a percentage of the 100 seeds planted.
The daily counts were converted to proportions of the final emergence of the box, and a Gompertz curve was fitted to the data from each box using SAS Proc NLIN. From the parameters of the model, median emergence time (T50) and quartile range (Qrange) were estimated for each box. Analysis of variance was performed and means calculated for each of the three responses (Final emergence, T50, Qrange).

[4] = cited from earlier work
[5] = relative to S-(+)-Abscisic acid salt = 1
[6] = relative to S-(+)-Abscisic acid = 1

CC1=CC(=O)CC(C)(C)[C@@]1(O)/C=C/C(C)=C\C(=O)[O-].[K+] [S-(+)-Abscisic acid salt]
Transpiration rate (% of control) Average of 3 days after treatment ([1]; ABA dose 1 mg): 70 % of control
Transpiration rate (% of control) Average of 3 days after treatment ([1]; ABA dose 3 mg): 60 % of control
Transpiration rate (% of control) Average of 3 days after treatment ([1]; ABA dose 10 mg): 50 % of control
S-(+)-Abscisic acid doses to achieve 50% inhibition of transpiration [1]: 10.13 mg/plant
S-(+)-Abscisic acid dose to achieve 50% inhibition of transpiration [1]: 10.13 mg
Relative potency [1, 5]: 1
Days of extended shelf life ([2]; ABA dose 1 mg): 0.50 days
Days of extended shelf life ([2]; ABA dose 3 mg): 1.17 days
Days of extended shelf life ([2]; ABA dose 10 mg): 1.50 days
Days of extended shelf life ([2]; ABA dose 30 mg): 1.83 days
S-(+)-Abscisic acid dose to extend 1 day shelf life [2]: 2.83 mg/plant
S-(+)-Abscisic acid dose (mg) to extend 1 day of shelf life [2]: 2.83 mg
S-(+)-Abscisic acid dose (mg) to extend 2 days of shelf life [2]: 39.83 mg
Relative potency (1 day) [2, 5]: 1
Relative potency (2 days) [2, 5]: 1

CC1=CC(=O)CC(C)(C)[C@@]1(O)/C=C/C(C)=C\C(=O)O [S-(+)-Abscisic acid]
Transpiration rate (% of control) Average of 3 days after treatment ([1]; ABA dose 1 mg): 73 % of control
Transpiration rate (% of control) Average of 3 days after treatment ([1]; ABA dose 3 mg): 63 % of control
Transpiration rate (% of control) Average of 3 days after treatment ([1]; ABA dose 10 mg): 54 % of control
S-(+)-Abscisic acid doses to achieve 50% inhibition of transpiration [1]: 15.02 mg/plant
S-(+)-Abscisic acid dose to achieve 50% inhibition of transpiration [1]: 15.02 mg
Relative potency [1, 6]: 1
final emergence in words ([3]; S-(+)-Abscisic acid dose of 100 g/cwt): roughly cut in half
Final emergence (%) ([3]; S-ABA 25 g/cwt): 92.3%
Qrange ([3]; S-ABA 25 g/cwt): 3.26 days
T50 ([3]; S-ABA 25 g/cwt): 9.15 days
Final emergence (%) ([3]; S-ABA 50 g/cwt): 68.9%
Qrange ([3]; S-ABA 50 g/cwt): 4.27 days
T50 ([3]; S-ABA 50 g/cwt): 11.20 days
Final emergence (%) ([3]; S-ABA 100 g/cwt): 53.5%
Qrange ([3]; S-ABA 100 g/cwt): 4.27 days
T50 ([3]; S-ABA 100 g/cwt): 12.74 days
Days of extended shelf life ([2]; ABA dose 1 mg): 0 days
Days of extended shelf life ([2]; ABA dose 3 mg): 0.67 days
Days of extended shelf life ([2]; ABA dose 10 mg): 0.83 days
Days of extended shelf life ([2]; ABA dose 30 mg): 1.67 days
S-(+)-Abscisic acid dose to extend 1 day shelf life [2]: 8.68 mg/plant
S-(+)-Abscisic acid dose (mg) to extend 1 day of shelf life [2]: 8.68 mg
S-(+)-Abscisic acid dose (mg) to extend 2 days of shelf life [2]: 79.62 mg
Relative potency (2 days) [2, 6]: 1
highest concentration that can be achieved in pure water ([4]; pure water at room temperature): about 3000 ppm
solubility limit in the tank-mix ([4]; tank-mix): up to 3000 ppm
